Experimental data from patent US4725580A (Sanofi, priority 1985, dated 1988).
Starred links: 1 amine or outer side, 2 acyl side, 3 side chain; linkers in the order of their positions; H or OH if unused. Non-standard residues stand in square brackets, D forms with d. Residues, ends and D or L forms follow the SMILES beside them. *: point of attachment. Propanoyl(3-(3-pyridyl)) = O=C(CCc1cccnc1)*; Propanoyl(3-(4-pyridyl)) = O=C(CCc1ccncc1)*; Acetyl(pyridin-2-yl) = O=C(Cc1ccccn1)*; Sta = CC(C)C[C@H](N)[C@@H](O)CC(=O)O; Acetyl(3-pyridyl) = O=C(Cc1cccnc1)*; Acetyl(4-pyridyl) = O=C(Cc1ccncc1)*; X3 = O=C(CC1CCCN([*:1])C1)[*:2]; Nicotinoyl = O=C(c1cccnc1)*; X2 = O=C(CCC(=O)*)c1ccccn1; X6 = O=C(CCC(=O)*)c1cccnc1; X5 = O=C(CCC(O)c1ccccn1)*; X7 = O=C(CCC(O)c1cccnc1)*; Nle = CCCC[C@H](N)C(=O)O; X1 = O=C(CCCc1ccccn1)*; X8 = O=C(CCCc1cccnc1)*; Boc = CC(C)(C)OC(=O)*

biological target: T1, human plasma renin (Homo sapiens, UniProt P00797); assay: Inhibition of human plasma renin activity (PRA) in vitro, angiotensin I released measured by radioimmunoassay; type: biochemical; conditions: human plasma pool rich in renin, 60 minutes at 37° C., phosphate buffer pH 7.4; 5 to 10 doses; read-out: Inhibition of human PRA -log IC50 M pH 7.4 (converted)
T1 construct: from tissue; host or cells: human plasma pool
T1 sequence (P00797 67-406): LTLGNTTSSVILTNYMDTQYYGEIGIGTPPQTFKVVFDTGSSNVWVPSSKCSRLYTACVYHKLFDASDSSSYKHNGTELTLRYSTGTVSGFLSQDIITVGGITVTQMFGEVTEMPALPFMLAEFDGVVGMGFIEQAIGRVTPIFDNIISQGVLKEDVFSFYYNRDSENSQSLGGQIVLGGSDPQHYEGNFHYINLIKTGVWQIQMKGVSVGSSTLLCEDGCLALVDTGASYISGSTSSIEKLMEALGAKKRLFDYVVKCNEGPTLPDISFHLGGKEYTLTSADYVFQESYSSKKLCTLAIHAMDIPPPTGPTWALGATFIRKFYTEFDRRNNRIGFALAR
Method: The products according to the invention were studied for their therapeutic properties and especially their inhibitory action on enzymes. More particularly, the compounds were evaluated "in vitro" in terms of their inhibition of human plasma renin activity (PRA).
Human plasma contains the substrate angiotensinogen and the enzyme renin. […] An inhibitor of the conversion enzyme, phenylmethylsulfonyl fluoride (PMSF), is added to the incubation medium.
420 microliters of human plasma
11 to 50 microliters of the product to be studied, at variable concentrations
A solution of acetic acid in methaol (19/1 by volume) and a solution of sodium hydroxide in methanol (2/1 by volume) are prepared. In a mixture of equal volumes of these 2 solutions, a 0.001M stock solution of the peptide is prepared. The subsequent dilutions of the peptide are then made up in the phosphate buffer.
The results are expressed by their logarithmic value (-log IC50).

| IC50 [nM] | Compound |
| --- | --- |
| 891 | CCCC[C@H](NC(=O)[C@H](Cc1ccccc1)NC(=O)CCC(=O)c1ccccn1)C(=O)N[C@@H](CC(C)C)[C@@H](O)CC(=O)N[C@@H](CC(C)C)C(=O)N[C@@H](Cc1ccccc1)C(=O)OC [SR 42793] (X2-F[Nle][Sta]LF-OMe) |
| 81.3 | CCCC[C@H](NC(=O)[C@H](Cc1ccccc1)NC(=O)c1cccnc1)C(=O)N[C@@H](CC(C)C)[C@@H](O)CC(=O)N[C@@H](C)C(=O)N[C@@H](CC(C)C)C(=O)OC [SR 42873, N-(Nicotinoyl)-Phe-Nle-Sta-Ala-Leu-OMe] (Nicotinoyl-F[Nle][Sta]AL-OMe) |
| 58.9 | CCCC[C@H](NC(=O)[C@H](Cc1ccccc1)NC(=O)CCC(O)c1ccccn1)C(=O)N[C@@H](CC(C)C)[C@@H](O)CC(=O)N[C@@H](CC(C)C)C(=O)N[C@@H](Cc1ccccc1)C(=O)OC (stereo partly shown) [SR 42991] (X5-F[Nle][Sta]LF-OMe) |
| 447 | CCCC[C@H](NC(=O)[C@H](Cc1ccccc1)NC(=O)CCC(=O)c1cccnc1)C(=O)N[C@@H](CC(C)C)[C@@H](O)CC(=O)N[C@@H](CC(C)C)C(=O)N[C@@H](Cc1ccccc1)C(=O)OC [SR 43108, N--(4-(pyridin-3-yl)-4-oxobutyryl)-Phe--Nle--Sta--Leu--Phe--OMe] (X6-F[Nle][Sta]LF-OMe) |
| 81.3 | CCCC[C@H](NC(=O)[C@H](Cc1ccccc1)NC(=O)CCC(O)c1cccnc1)C(=O)N[C@@H](CC(C)C)[C@@H](O)CC(=O)N[C@@H](CC(C)C)C(=O)N[C@@H](Cc1ccccc1)C(=O)OC (stereo partly drawn) [SR 43123, (R,S)--N--(4-(pyridin-3-yl)-4-hydroxybutyryl)-Phe--Nle--Sta--Leu--Phe--OMe] (X7-F[Nle][Sta]LF-OMe) |
| 79.4 | CCCC[C@H](NC(=O)[C@H](Cc1ccccc1)NC(=O)Cc1cccnc1)C(=O)N[C@@H](CC(C)C)[C@@H](O)CC(=O)N[C@@H](CC(C)C)C(=O)N[C@@H](Cc1ccccc1)C(=O)OC [SR 43282, N--(pyridin-3-ylacetyl)-Phe--Nle--Sta--Leu--Phe--OMe] ({Acetyl(3-pyridyl)}-F[Nle][Sta]LF-OMe) |
| 295 | CCCC[C@H](NC(=O)[C@H](Cc1ccccc1)NC(=O)Cc1ccccn1)C(=O)N[C@@H](CC(C)C)[C@@H](O)CC(=O)N[C@@H](CC(C)C)C(=O)N[C@@H](Cc1ccccc1)C(=O)OC [SR 43314, N--(pyridin-2-ylacetyl)-Phe--Nle--Sta--Leu--Phe--OMe] ({Acetyl(pyridin-2-yl)}-F[Nle][Sta]LF-OMe) |
| 67.6 | CCCC[C@H](NC(=O)[C@H](Cc1ccccc1)NC(=O)CCc1cccnc1)C(=O)N[C@@H](CC(C)C)[C@@H](O)CC(=O)N[C@@H](CC(C)C)C(=O)N[C@@H](Cc1ccccc1)C(=O)OC [SR 43454, N--(3-(pyridin-3-yl)propionyl)-Phe--Nle--Sta--Leu--Phe--OMe] ({Propanoyl(3-(3-pyridyl))}-F[Nle][Sta]LF-OMe) |
| 100 | CCCC[C@H](NC(=O)[C@H](Cc1ccccc1)NC(=O)CCCc1ccccn1)C(=O)N[C@@H](CC(C)C)[C@@H](O)CC(=O)N[C@@H](CC(C)C)C(=O)N[C@@H](Cc1ccccc1)C(=O)OC [SR 43484, N--(4-(pyridin-2-yl)butyryl)-Phe--Nle--Sta--Leu--Phe--OMe] (X1-F[Nle][Sta]LF-OMe) |
| 174 | CCCC[C@H](NC(=O)[C@H](Cc1ccccc1)NC(=O)CC1CCCN(C(=O)OC(C)(C)C)C1)C(=O)N[C@@H](CC(C)C)[C@@H](O)CC(=O)N[C@@H](CC(C)C)C(=O)N[C@@H](Cc1ccccc1)C(=O)OC (stereo partly shown) [SR 43519, N--(N--Boc--piperidin-3-ylacetyl)-Phe--Nle--Sta--Leu--Phe--OMe] (Boc-[X3]F[Nle][Sta]LF-OMe) |
| 204 | CCCC[C@H](NC(=O)[C@H](Cc1ccccc1)NC(=O)CCc1ccncc1)C(=O)N[C@@H](CC(C)C)[C@@H](O)CC(=O)N[C@@H](CC(C)C)C(=O)N[C@@H](Cc1ccccc1)C(=O)OC [SR 43633, N--(3-(pyridin-4-yl)propionyl)-Phe--Nle--Sta--Leu--Phe--OMe] ({Propanoyl(3-(4-pyridyl))}-F[Nle][Sta]LF-OMe) |
| 132 | CCCC[C@H](NC(=O)[C@H](Cc1ccccc1)NC(=O)Cc1ccncc1)C(=O)N[C@@H](CC(C)C)[C@@H](O)CC(=O)N[C@@H](CC(C)C)C(=O)N[C@@H](Cc1ccccc1)C(=O)OC [SR 43781, N--(pyridin-4-ylacetyl)-Phe--Nle--Sta--Leu--Phe--OMe] ({Acetyl(4-pyridyl)}-F[Nle][Sta]LF-OMe) |
| 41.7 | CCCC[C@H](NC(=O)[C@H](Cc1ccccc1)NC(=O)CCCc1cccnc1)C(=O)N[C@@H](CC(C)C)[C@@H](O)CC(=O)N[C@@H](CC(C)C)C(=O)N[C@@H](Cc1ccccc1)C(=O)OC [SR 43782, N--(4-(pyridin-3-yl)butyryl)-Phe--Nle--Sta--Leu--Phe--OMe] (X8-F[Nle][Sta]LF-OMe) |
